Measurements reported in publication PMC5040251, “The Structure of Treponema pallidum Tp0751 (Pallilysin) Reveals a Non-canonical Lipocalin Fold That Mediates Adhesion to Extracellular Matrix Components and Interactions with Host Cells” (PLoS Pathogens, 2016).
Ends that are not written are not given here.

What was measured:
[1] = target: T1, fibrinogen (Homo sapiens, UniProt P02671+P02675+P02679); assay: Initial (single point) binding screen of Tp0751 peptide library to immobilized fibrinogen; conditions: absorbance 600 nm, three wells, two independent experiments, Student's two-tailed t-test against non-binding peptides
T1 construct: purchased Calbiochem, purchased from VWR International
T1 sequence (P02671 20-629 limits assumed): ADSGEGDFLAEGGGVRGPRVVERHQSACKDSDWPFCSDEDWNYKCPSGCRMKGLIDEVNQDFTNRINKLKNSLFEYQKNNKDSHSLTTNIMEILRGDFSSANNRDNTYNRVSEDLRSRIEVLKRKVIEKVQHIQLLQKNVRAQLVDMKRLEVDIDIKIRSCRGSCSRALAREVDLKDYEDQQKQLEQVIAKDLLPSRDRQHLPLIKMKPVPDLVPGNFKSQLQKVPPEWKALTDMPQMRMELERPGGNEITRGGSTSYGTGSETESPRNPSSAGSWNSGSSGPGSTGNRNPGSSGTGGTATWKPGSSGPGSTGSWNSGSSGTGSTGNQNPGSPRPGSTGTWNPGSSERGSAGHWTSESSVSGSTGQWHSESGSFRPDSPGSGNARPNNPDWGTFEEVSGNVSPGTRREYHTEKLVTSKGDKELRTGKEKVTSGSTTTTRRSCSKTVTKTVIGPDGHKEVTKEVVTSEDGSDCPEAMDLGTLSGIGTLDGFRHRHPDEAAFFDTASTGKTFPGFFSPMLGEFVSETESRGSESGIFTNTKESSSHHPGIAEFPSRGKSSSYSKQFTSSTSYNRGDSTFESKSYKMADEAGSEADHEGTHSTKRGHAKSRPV
T1 sequence (P02675 31-491): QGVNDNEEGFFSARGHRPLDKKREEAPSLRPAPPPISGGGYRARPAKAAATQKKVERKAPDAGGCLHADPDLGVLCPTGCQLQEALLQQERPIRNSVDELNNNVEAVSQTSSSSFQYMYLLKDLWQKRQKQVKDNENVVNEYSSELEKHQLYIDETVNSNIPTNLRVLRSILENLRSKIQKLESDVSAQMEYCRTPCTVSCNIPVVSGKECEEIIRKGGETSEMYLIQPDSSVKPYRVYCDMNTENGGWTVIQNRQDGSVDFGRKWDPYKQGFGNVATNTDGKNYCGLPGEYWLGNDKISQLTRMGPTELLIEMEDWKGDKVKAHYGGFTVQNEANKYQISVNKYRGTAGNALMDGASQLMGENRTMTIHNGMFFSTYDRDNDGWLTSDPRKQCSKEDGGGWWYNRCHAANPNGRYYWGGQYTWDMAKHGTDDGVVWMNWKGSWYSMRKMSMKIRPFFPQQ
T1 sequence (P02679 27-433 limits assumed): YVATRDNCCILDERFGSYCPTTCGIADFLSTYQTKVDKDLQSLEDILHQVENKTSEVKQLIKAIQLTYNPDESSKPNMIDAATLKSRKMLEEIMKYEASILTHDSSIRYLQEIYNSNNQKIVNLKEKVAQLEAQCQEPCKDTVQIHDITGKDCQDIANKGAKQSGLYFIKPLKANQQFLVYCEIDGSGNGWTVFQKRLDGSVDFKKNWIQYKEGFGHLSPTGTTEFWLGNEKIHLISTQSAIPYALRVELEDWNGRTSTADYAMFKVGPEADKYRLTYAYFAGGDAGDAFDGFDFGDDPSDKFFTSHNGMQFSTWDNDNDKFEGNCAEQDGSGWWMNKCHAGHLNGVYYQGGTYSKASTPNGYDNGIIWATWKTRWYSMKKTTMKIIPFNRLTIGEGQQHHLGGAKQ
Protocol: (§1) Fig 3 Tp0751 lipocalin derived peptides directly bind host proteins. (A) Thirteen overlapping Tp0751 synthetic 24-mer peptides were evaluated for binding to immobilized fibrinogen, fibronectin, collagen type I, and collagen type IV. Average absorbance readings (600 nm) from three wells are presented with bars indicating standard error and the results are representative of two independent experiments. […] Average absorbance readings (600 nm) from three wells are presented with bars indicating standard error and the results are representative of two independent experiments. […] The strand colored in cyan reflects the overlap of p10 and p11. Color coded sequences of peptides p4, p6, p10, p10scr1, and p10scr2 are shown. Arginine residues in the p10 peptides are indicated by underlining.
(§2) Plasminogen-depleted human fibrinogen (Calbiochem) was purchased from VWR International. Laminin isolated from Engelbreth-Holm-Swarm murine sarcoma basement membrane and fibronectin isolated from human plasma were purchased from Sigma-Aldrich Canada Ltd. (Oakville, ON). Human collagen types I and IV (Rockland Immunochemicals, Inc.) were purchased from VWR International.
(§3) To test for binding of synthetic Tp0751 peptides p1-p13, p1scr, p6scr, p10scr1, and p10scr2 to the host proteins fibrinogen, fibronectin, laminin, collagen type I, and collagen type IV, initial binding assays were performed as described previously. For dose-dependent binding assays, recombinant proteins were serially diluted 1:2 from either 10 μM to 0.156 μm (Tp0751_78A used for crystallization and Tp0751_78 WT) or 40 μm to 0.625 μm (peptides p4, p6, p10, p11, p10scr1, and p10scr2). Average absorbance readings (600 nm) from three wells are presented with bars indicating standard error and the results are representative of two independent experiments. Plates were read at 600 nm with a BioTek enzyme-linked immunosorbent assay plate reader (Fisher Scientific, Ottawa, ON). All statistical analyses were performed using the Student’s two-tailed t-test. Non-linear regression curves were fitted and apparent dissociation constants (K d) were calculated using GraphPad Prism data analysis software (San Diego, CA).

[2] = test system: collagen type IV; assay: Initial (single point) binding screen of Tp0751 peptide library to immobilized collagen type IV; conditions: immobilized human collagen type IV; absorbance 600 nm, three wells, two independent experiments; Student's two-tailed t-test against non-binding peptides
Protocol: as §1, §2, §3

[3] = test system: collagen type I; assay: Initial (single point) binding screen of Tp0751 peptide library to immobilized collagen type I; conditions: immobilized human collagen type I; absorbance 600 nm, three wells, two independent experiments; Student's two-tailed t-test against non-binding peptides
Protocol: as §1, §2, §3

| Sequence | Binding to fibrinogen in initial binding screen [1] | Binding to collagen IV in initial binding screen [2] | Binding to collagen I in initial binding screen [3] |
| --- | --- | --- | --- |
| HHHHHHGGAAQTHTQPPVQTAMRIALWNRA [p4] | statistically significant binding | statistically significant binding | statistically significant binding |
| HHHHHHQGALQHLLAGLWIQTEISPNSGDI [p6] | statistically significant binding | statistically significant binding | statistically significant binding |
| HHHHHHRKTVSFLTRNTAISSIRRRLEVTF [p10] | significant binding | significant binding | not to collagen I |
| HHHHHHSIRRRLEVTFESHEVIHVRAVEDV [p11] | statistically significant binding | statistically significant binding | statistically significant binding |
